Measurements as given in article PMC4685510, “A Cell Biologist’s Field Guide to Aurora Kinase Inhibitors” (Frontiers in Oncology, 2015).

Assays:
Aurora B/INCENP^783–918 = biological target: T1, Aurora B/INCENP^783–918 (Homo sapiens, UniProt Q96GD4); test: Aurora B/INCENP^783–918 kinase assay (ADP-Glo); type: biochemical
T1 construct: purchased SignalChem

[1] = tested on: pLATS2(Ser 83) in HeLa cells; test: Substrate phosphorylation immunofluorescence assay, pLATS2(Ser 83), HeLa; type: cell-based, human; conditions: Homo sapiens, HeLa, 8 h, read-out: pLATS2 (Ser83) IC50, HeLa; 8 h inhibitor treatment
Description: We employed the protocol described in Figure 3D to analyze substrate phosphorylation in HeLa cells following treatment with all 10 inhibitors in dose–response. Asynchronous cells were incubated with vehicle (DMSO) or different inhibitor doses for 8 h and then fixed and labeled with a mixture of three antibodies directed against pLATS2(Ser 83), pH3(Ser 28), and MPM2 [which detects mitotic phosphoepitopes; ([86])]. While both the anti-pLATS2(Ser 83) and MPM2 antibodies are mouse monoclonals, they are of different IgG subclasses [IgG2b for anti-pLATS2(Ser 83) and IgG1 for MPM2], and can thus be detected with subclass-specific secondary antibodies (Table S3 in Supplementary Material).
In control mitotic cells, pLATS2(Ser 83) is concentrated in foci around the spindle poles (Figure 3E; top row – green arrow) and pH3(Ser 28) is on the mitotic chromatin (Figure 3E; top row – red arrow). Selective kinase inhibition should result in loss of one signal but not the other, as illustrated by the example images for specific conditions in Figure 3E (middle and bottom rows). Cells were imaged in 4 channels to visualize pLATS2(Ser 83), pH3(Ser 28), MPM2, and DNA (labeled with Hoechst) and mitotic cells were segmented based on their bright MPM2 labeling (Figure 3E). Intensity and area thresholds were set to select the pLATS2(Ser 83) foci and the pH3(Ser 28)-labeled chromatin in their respective channels in DMSO-treated control cells and the same thresholds were applied for inhibitor-treated cells. The mean fluorescence intensity per pixel was measured to assess the activities of the kinases targeting these two substrate phosphorylation sites.
Twelve thousand HeLa cells, 10,000 U2OS cells, or 8,000 RPE1 cells were seeded into 96-well glass-bottom Sensoplates (Greiner) 16 h before inhibitor addition. Prior to seeding, the glass-bottom plates were coated with poly-L-lysine (Sigma). […] After 8 h cells were fixed with 4% PFA for 20 min at room temperature. The fixed cells were washed with PBS. For immunostaining, cells were permeabilized and blocked with PBS containing 10% normal donkey serum (Jackson ImmunoResearch) and 0.1% Triton-X100 for 1 h at room temperature. Primary antibodies against phospho-LATS2 (Ser 83), phospho-histone H3(Ser 28), and anti-phospho-MPM2 (see Table S3 in Supplementary Material) were incubated for 1 h at room temperature. […] Cells were then washed twice with PBS containing 0.1% Triton-X100. Image acquisition in four channels was performed using a CV7000 spinning disk confocal system (Yokogawa Electric Corporation) with a 40 × 0.95 NA U-PlanApo objective and 2560 × 2160 pixel sCMOS camera. […] Fifty fields per well were imaged with quadruplicate wells for each condition. Image analysis was done using the CV7000 image analysis software (Yokogawa Electric Corporation). Between 100 and 1,000 mitotic cells per condition were segmented applying object identification parameters to select for bright MPM2 labeling. Using a nuclear identifier protocol, minimum intensity thresholds were set for pLATS2(Ser 83) and the pH3(Ser 28) signals, and the resulting identified objects were eroded, dilated, and filtered for size by user-defined thresholds. For only the MPM2-positive mitotic cells, the mean fluorescence intensity of the identified pLATS2(Ser 83) and pH3(Ser 28) objects was measured, and the average intensity per cell per well was calculated. The same thresholds were applied for all of the inhibitor-treated samples, which were processed, imaged, and analyzed in parallel with control DMSO-treated cells. Data were fit using a four-parameter, variable slope fit in Prism (GraphPad). Primary and secondary antibody dilutions can be found in Table S3 in Supplementary Material.

[2] = tested on: pH3(Ser 28) in HeLa cells; test: Substrate phosphorylation immunofluorescence assay, pH3(Ser 28), HeLa; type: cell-based, human; conditions: 8 h inhibitor treatment
HeLa cells = test: Live cell-activated caspase 3/7 assay; type: cell-based, human; conditions: within 24 h of treatment
Description: HeLa cells (6,000/well) were seeded in 96-well μCLEAR plates (Greiner) in 100 μL DMEM plus serum, and incubated for 16 h at 37°C and 5% CO2. […] After 24 h 2 μM CellEvent Caspase-3/7 Green Reagent (Life Technologies), and NucBlue Live ReadyProbes Reagent (Hoechst 33342; Life Technologies) were added. Cells were imaged after 60 min on a CV7000 spinning disk confocal system (Yokogawa Electric Corporation) with a 20 × 0.75 NA U-PlanApo objective and 2560 × 2160 sCMOS camera with 2 × 2 binning. The imaging chamber was maintained at 37°C and 5% CO2. Six to eight fields/well were imaged, with duplicate wells for each condition. 3 μm × 2 μm z-sections in the blue (40% power, 300 ms, 35% gain) and green (40% power, 300 ms, 35% gain) channels were captured in each field. The apoptotic fraction was calculated by dividing the number of cells fluorescing at 530 nm (corresponding to the cleaved caspase reporter reagent) by the number of nuclei (Hoechst staining). Image analysis was done using the CV7000 image analysis software (Yokogawa Electric Corporation).

Aurora A = conditions: ref 59; read-out: Aurora A IC50 (Published); cited from earlier work
Aurora B = conditions: ref 59; read-out: Aurora B IC50 (Published); cited from earlier work
Aurora A/TPX2^1–43 = biological target: T2, Aurora A/TPX2^1–43 (Homo sapiens, UniProt O14965); test: Aurora A/TPX2^1–43 kinase assay (ADP-Glo)
T2 sequence (O14965 1-403): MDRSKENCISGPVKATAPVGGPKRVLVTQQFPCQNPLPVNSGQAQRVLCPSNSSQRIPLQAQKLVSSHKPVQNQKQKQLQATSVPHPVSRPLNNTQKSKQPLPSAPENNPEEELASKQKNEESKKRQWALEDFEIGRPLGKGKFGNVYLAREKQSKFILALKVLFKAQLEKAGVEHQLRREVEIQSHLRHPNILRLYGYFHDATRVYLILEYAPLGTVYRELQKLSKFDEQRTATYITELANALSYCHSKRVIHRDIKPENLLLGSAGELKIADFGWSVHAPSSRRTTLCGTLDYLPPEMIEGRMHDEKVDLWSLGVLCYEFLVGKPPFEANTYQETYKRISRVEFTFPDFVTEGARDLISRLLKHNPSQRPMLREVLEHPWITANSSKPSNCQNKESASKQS
T2 sequence (Q9ULW0 1-43 partner limits assumed): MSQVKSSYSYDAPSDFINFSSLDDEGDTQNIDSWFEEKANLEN

[3] = tested on: HeLa, RPE1, and U2OS cells; test: Cellular proliferation analysis (ATPLite, 24 h)
[4] = biological target: T3, full-length human Aurora A (Homo sapiens, UniProt O14965); test: Aurora A kinase assay (ADP-Glo, Kemptide substrate)
T3 sequence (O14965 1-403): T2 sequence (O14965 1-403)

[5] = fold difference in potency calculated by dividing Ki values

T1 sequence (Q96GD4 whole entry): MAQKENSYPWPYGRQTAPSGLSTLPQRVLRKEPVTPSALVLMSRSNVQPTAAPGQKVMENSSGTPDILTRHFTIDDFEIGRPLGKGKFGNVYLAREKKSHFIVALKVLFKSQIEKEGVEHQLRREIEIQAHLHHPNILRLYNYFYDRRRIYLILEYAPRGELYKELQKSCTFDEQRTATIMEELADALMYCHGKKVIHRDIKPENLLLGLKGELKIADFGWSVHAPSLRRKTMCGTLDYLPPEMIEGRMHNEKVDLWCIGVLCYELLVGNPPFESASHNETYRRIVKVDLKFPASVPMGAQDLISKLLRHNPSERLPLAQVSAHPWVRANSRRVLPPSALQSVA
T1 sequence (Q9NQS7 783-918 partner limits assumed): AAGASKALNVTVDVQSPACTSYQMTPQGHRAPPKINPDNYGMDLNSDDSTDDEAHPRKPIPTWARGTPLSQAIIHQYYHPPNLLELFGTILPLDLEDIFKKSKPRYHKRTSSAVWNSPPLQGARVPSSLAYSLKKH

In the case of CCN1CCN(C(=O)Cc2ccc(Nc3ncc(F)c(Nc4ccc(C(=O)Nc5ccccc5Cl)cc4)n3)cc2)CC1 [Genentech Aurora Inhibitor 1], the Ki (Aurora B/INCENP^783–918) is reported as 156 ± 33.7 nM, the IC50 [1] is reported as 490 nM and the “pHistone H3 (Ser28) IC50” value [2] is reported as “NE@9 μM”. For the same compound, the “pHistone H3 (Ser28) IC50” value ([2]; listed as Genentech Aurora Inh 1) was “NE (9 μM)”, the Apoptosis (HeLa cells) was “apoptotic cell death” and the IC50 (Aurora A) was 3.4 nM. For the same compound, the IC50 (Aurora B) was 3400 nM, the Ki (Aurora A/TPX2^1–43) was 0.24 ± 0.02 nM and the “Increase of affinity for Aurora A by TPX2^1–43” value (Aurora A/TPX2^1–43; Aurora A Ki versus Aurora A/TPX2^1–43 Ki) was 2.5 fold. The “Selectivity ratio Aur A-TPX2^1–43 versus Aur B-INCENP^783–918” value (Aurora A/TPX2^1–43; [5]) was 654 fold, the “Toxicity / cytotoxicity (cellular proliferation)” value ([3]; HeLa, RPE1, U2OS, 24 h (Figure 4D, Figure S2B)) was “cytotoxic” and the Effect on proliferation ([3]; HeLa, within 24 h of treatment) was “significantly reduced proliferation”. The “Toxicity (reduced proliferation)” value ([3]; U2OS and RPE1 cells, 24 h) was “toxicity”, the Ki ([4]; Aurora A Ki Mean ± SD, [ATP] = Km(ATP) (35 μM), Ki calculated from IC50 with tight-binding equation) was 0.57 ± 0.06 nM and the “Selectivity ratio Aur A versus Aur A-TPX2^1–43” value [4, 5] was 0.4 fold. For the same compound, the “Selectivity ratio Aur A versus Aur B-INCENP^783–918” value [4, 5] was 274 fold.
